Experiment: Solubility of the API
Type: physicochemical
Conditions: water and a buffer salt solution with pH 1.0-pH 6.8

SMILES: Cn1c(C(=O)N2CC(F)(F)C2)cc2ccc(-c3nccc(Nc4ccc(-c5cn[nH]c5)cc4)n3)cc21 [compound of formula (IV), [6-[4-[[4-(1H-pyrazol-4-yl)phenyl]amino]pyrimidin-2-yl]-1-methyl-1H-indole-2-yl](3,3-difluoroazetidin-1-yl)methanone]
- Solubility: insoluble
